Data from patent US11197836B2, “Topical vasoconstrictor preparations and methods for protecting cells during cancer chemotherapy and radiotherapy” (WISCONSIN ALUMNI RESEARCH FOUNDATION, priority 2005, dated 2021).
Values belong to the molecule of their own block, whether it stands above or below them.

Key:
[1] = Dissolution and 24 hr solution status of vasoconstrictor salts in ethanol:PG:water diluents, Example 6; format: physicochemical
Experimental: Aliquots of each vasoconstrictor salt were weighed into glass test tubes. The volume of liquid necessary to achieve the indicated final drug concentration was then added.
(§1) The approximate amount of heat required to dissolve the vasoconstrictor salt in each diluent is indicated. Once diluted, samples were sealed and held at room temperature (22° C.) for 24 hours and then at 4° C. for 24 hours. Skin blanch induced by the topical formulation was assessed by applying freshly made, clear formulation to human skin shortly after initial mixing. Drug solutions were monitored for the appearance of precipitated material over a 48 hour observation period.

human oral mucosa = test system: human oral mucosa
Experimental: A QTip wetted with the 1 mM solution was used to swab the lower lip and oral mucosa adjoining the lower lip during the first 20 min. […] Images were taken and then scored for the degree of mucosal blanch observed.

[2] = test system: radiation-induced oral mucositis; test: Radiation-induced oral mucositis in hamster cheek pouch, Example 16; conditions: for mucosal pathology: hamster cheek pouch
human forearm skin = test: Human forearm skin blanch and irritation with permeation enhancers, Example 8; format: in vivo; conditions: water
Experimental: In samples where a clear, norepinephrine-containing solution was achieved, an aliquot (˜100 μl) was applied to a ˜1 cm^2 area of human forearm skin using a cotton swab. The extent of skin blanch (i.e., dermal vasculature constriction) beneath the application site was visually scored over the 60 min following application.

human skin = test: Human skin blanch 20 min after topical application, Example 6; format: in vivo; conditions: for Skin Blanch: 600 mM, human skin, 20 min after topical application
Experimental: as §1

[3] = test system: radiation-induced alopecia; conditions: 950 mM in 50:30:20 ethanol:PG:water, 10 day old rats
Experimental: At specific time points, digital images were recorded to show areas of skin blanch in the epi-treated rats.

[4] = 15:30:55 Ethanol:PG:water, 1000 mM
[5] = 20:30:50 Ethanol:PG:water, 1500 mM
[6] = 60:0:40 isopropanol:PG:water, 1500 mM
[7] = 10 mM topical, human lip and oral mucosa
[8] = 0:50:50 Ethanol:PG:water, 1800 mM
[9] = 0:80:20 Ethanol:PG:water, 1800 mM
[10] = 12:30:58 Ethanol:PG:water, 450 mM
[11] = 12:30:58 Ethanol:PG:water, 600 mM
[12] = 12:30:58 Ethanol:PG:water, 750 mM
[13] = 15:30:55 Ethanol:PG:water, 600 mM
[14] = 33:33:33 Ethanol:PG:water, 1800 mM
[15] = 40:25:35 Ethanol:PG:water, 600 mM
[16] = 40:30:30 Ethanol:PG:water, 300 mM
[17] = 44:18:33 Ethanol:PG:water, 600 mM
[18] = 45:25:30 Ethanol:PG:water, 300 mM
[19] = 45:25:30 Ethanol:PG:water, 600 mM
[20] = 50:20:30 Ethanol:PG:water, 600 mM
[21] = 50:25:25 Ethanol:PG:water, 600 mM
[22] = 50:30:20 Ethanol:PG:water, 600 mM
[23] = 55:20:25 Ethanol:PG:water, 600 mM
[24] = 60:20:20 Ethanol:PG:water, 600 mM
[25] = 50:30:20 Ethanol:PG:water, 750 mM
[26] = 10:30:60 Ethanol:PG:water, 4000 mM
[27] = 10:30:60 Ethanol:PG:water, 5000 mM
[28] = 10:30:60 Ethanol:PG:water, 5500 mM
[29] = 12:30:58 Ethanol:PG:water, 3300 mM
[30] = 15:30:55 Ethanol:PG:water, 500 mM

SMILES: COc1ccc(OC)c(C(O)C(C)N)c1 (stereo not drawn) [Methoxamine]
potency to induce skin blanch (human skin; applied to unbroken human skin): lacks the potency to adequately induce skin blanch

SMILES: CNC[C@H](O)c1cccc(O)c1.Cl [PhE, R (−) phenylephrine-HCl]
Heat required to completely dissolve vasoconstrictor salt (#secs. at 100° C.) [1, 26]: 12 s
Sample status after 24 hr at 4° C. [1, 26]: precipitate
Sample status after 24 hr at ~22° C. [1, 26]: precipitate
Heat required to completely dissolve vasoconstrictor salt (#secs. at 100° C.) [1, 27]: 12 s
Sample status after 24 hr at 4° C. [1, 27]: precipitate
Sample status after 24 hr at ~22° C. [1, 27]: precipitate
Heat required to completely dissolve vasoconstrictor salt (#secs. at 100° C.) [1, 28]: 16 s
Sample status after 24 hr at 4° C. [1, 28]: precipitate
Sample status after 24 hr at ~22° C. [1, 28]: precipitate
Heat required to completely dissolve vasoconstrictor salt (#secs. at 100° C.) [1, 29]: 8 s
Sample status after 24 hr at 4° C. [1, 29]: precipitate
Sample status after 24 hr at ~22° C. [1, 29]: precipitate
Heat required to completely dissolve vasoconstrictor salt (#secs. at 100° C.) [1, 30]: 8 s
Sample status after 24 hr at 4° C. [1, 30]: precipitate
Sample status after 24 hr at ~22° C. [1, 30]: clear

Now from value to molecule, other results behind:

Heat required to completely dissolve vasoconstrictor salt (#secs. at 100° C.) [1, 4]: 0 s
Sample status after 24 hr at 4° C. [1, 4]: clear
Sample status after 24 hr at ~22° C. [1, 4]: clear
Heat required to completely dissolve vasoconstrictor salt (#secs. at 100° C.) [1, 5]: 0 s
Sample status after 24 hr at 4° C. [1, 5]: clear
Sample status after 24 hr at ~22° C. [1, 5]: clear
Heat required to completely dissolve vasoconstrictor salt (#secs. at 100° C.) [1, 6]: 0 s
Sample status after 24 hr at 4° C. [1, 6]: clear
Sample status after 24 hr at ~22° C. [1, 6]: clear
mucosal pathology ([2]; large excess doses combined with 24 min of irradiation (40 Gy)): severe mucosal pathology
mucosal pathology ([2]; large excess doses without irradiation): no discernible mucosal pathology
SMILES: CNC[C@H](O)c1ccc(O)c(O)c1.O=C(O)C(O)C(O)C(=O)O [Epi, L (−) epinephrine-tartrate]
blanch response (human oral mucosa; 1 mM solution swabbed on lower lip and oral mucosa during first 20 min, human): little blanch response
duration of blanching (human oral mucosa; 10 mM topical, four times over 50 min, human lip and oral mucosa): 1.5 to 2 h
time to clear blanching of lip and mucosa (human oral mucosa; [7]): ≤ 20 min
time to normal color lip and mucosa (human oral mucosa; [7]): ≤ 3 h
topical concentration completely protective against γ radiation-induced pathology ([2]; hamster cheek pouch mucosal surface): 400 μM

Heat required to completely dissolve vasoconstrictor salt (#secs. at 100° C.) [1, 8]: 6 s
Sample status after 24 hr at 4° C. [1, 8]: precipitate
Sample status after 24 hr at ~22° C. [1, 8]: precipitate
Heat required to completely dissolve vasoconstrictor salt (#secs. at 100° C.) [1, 9]: 24 s
Sample status after 24 hr at 4° C. [1, 9]: precipitate
Sample status after 24 hr at ~22° C. [1, 9]: precipitate
Heat required to completely dissolve vasoconstrictor salt (#secs. at 100° C.) [1, 10]: 0 s
Sample status after 24 hr at 4° C. [1, 10]: clear
Sample status after 24 hr at ~22° C. [1, 10]: clear
Heat required to completely dissolve vasoconstrictor salt (#secs. at 100° C.) [1, 11]: 0 s
Sample status after 24 hr at 4° C. [1, 11]: clear
Sample status after 24 hr at ~22° C. [1, 11]: clear
Heat required to completely dissolve vasoconstrictor salt (#secs. at 100° C.) [1, 12]: 0 s
Sample status after 24 hr at 4° C. [1, 12]: clear
Sample status after 24 hr at ~22° C. [1, 12]: clear
Heat required to completely dissolve vasoconstrictor salt (#secs. at 100° C.) [1, 13]: 0 s
Sample status after 24 hr at 4° C. [1, 13]: clear
Sample status after 24 hr at ~22° C. [1, 13]: clear
Heat required to completely dissolve vasoconstrictor salt (#secs. at 100° C.) [1, 4]: 0 s
Sample status after 24 hr at 4° C. [1, 4]: clear
Sample status after 24 hr at ~22° C. [1, 4]: clear
Heat required to completely dissolve vasoconstrictor salt (#secs. at 100° C.) [1, 14]: 18 s
Sample status after 24 hr at 4° C. [1, 14]: precipitate
Sample status after 24 hr at ~22° C. [1, 14]: precipitate
Heat required to completely dissolve vasoconstrictor salt (#secs. at 100° C.) [1, 15]: 2 s
Sample status after 24 hr at 4° C. [1, 15]: clear
Sample status after 24 hr at ~22° C. [1, 15]: clear
Heat required to completely dissolve vasoconstrictor salt (#secs. at 100° C.) [1, 16]: 2 s
Sample status after 24 hr at 4° C. [1, 16]: clear
Sample status after 24 hr at ~22° C. [1, 16]: clear
Heat required to completely dissolve vasoconstrictor salt (#secs. at 100° C.) [1, 17]: 2 s
Sample status after 24 hr at 4° C. [1, 17]: clear
Sample status after 24 hr at ~22° C. [1, 17]: clear
Heat required to completely dissolve vasoconstrictor salt (#secs. at 100° C.) [1, 18]: 2 s
Sample status after 24 hr at 4° C. [1, 18]: clear
Sample status after 24 hr at ~22° C. [1, 18]: clear
Heat required to completely dissolve vasoconstrictor salt (#secs. at 100° C.) [1, 19]: 2 s
Sample status after 24 hr at 4° C. [1, 19]: clear
Sample status after 24 hr at ~22° C. [1, 19]: clear
Heat required to completely dissolve vasoconstrictor salt (#secs. at 100° C.) [1, 20]: 1 s
Sample status after 24 hr at 4° C. [1, 20]: clear
Sample status after 24 hr at ~22° C. [1, 20]: clear
Heat required to completely dissolve vasoconstrictor salt (#secs. at 100° C.) [1, 21]: 1 s
Sample status after 24 hr at 4° C. [1, 21]: clear
Sample status after 24 hr at ~22° C. [1, 21]: clear
Heat required to completely dissolve vasoconstrictor salt (#secs. at 100° C.) [1, 22]: 1 s
Sample status after 24 hr at 4° C. [1, 22]: clear
Sample status after 24 hr at ~22° C. [1, 22]: clear
Heat required to completely dissolve vasoconstrictor salt (#secs. at 100° C.) [1, 23]: 1 s
Sample status after 24 hr at 4° C. [1, 23]: precipitate
Sample status after 24 hr at ~22° C. [1, 23]: precipitate
Heat required to completely dissolve vasoconstrictor salt (#secs. at 100° C.) [1, 24]: 2 s
Sample status after 24 hr at 4° C. [1, 24]: clear
Sample status after 24 hr at ~22° C. [1, 24]: clear
SMILES: NC[C@H](O)c1ccc(O)c(O)c1.O=C(O)C(O)C(O)C(=O)O [Nep, L (−) norepinephrine-tartrate]
Skin Irritation (human forearm skin; 300 mM Nep): No
Skin Irritation (human forearm skin; 300 mM Nep, 0.8% SLS): No
Skin Blanch (human forearm skin; 300 mM Nep, 0.8% SLS, 20 min): 0
Skin Blanch (human forearm skin; 300 mM Nep, 20 min after topical application): 0
Skin Irritation (human forearm skin; 300 mM Nep, ethanol): No
Skin Irritation (human forearm skin; 300 mM Nep, ethanol, 0.8% SLS): Slight
Skin Irritation (human forearm skin; 300 mM Nep, ethanol, 5% Menthone): Slight
Skin Irritation (human forearm skin; 300 mM Nep, ethanol, PG): No
Skin Irritation (human forearm skin; 300 mM Nep, ethanol, PG, 0.3% SLS): No
Skin Irritation (human forearm skin; 300 mM Nep, ethanol, PG, 0.3% SLS, 5% Menthone): Yes
Skin Blanch (human forearm skin; 300 mM Nep, ethanol, PG, 0.3% SLS, 5% Menthone, 20 min): +++++ (+++++ = 90-100% blanch)
Skin Irritation (human forearm skin; 300 mM Nep, ethanol, PG, 5% Methone): No
Skin Irritation (human forearm skin; 300 mM Nep, ethanol, Transcutol): No
Skin Irritation (human forearm skin; 300 mM Nep, ethanol, Transcutol, 0.4% SLS): No
Skin Irritation (human forearm skin; 600 mM NEp, ethanol, PG): No
Skin Blanch (human forearm skin; 600 mM NEp, ethanol, PG, 20 min): +++++ (+++++ = 90-100% blanch)
Skin Irritation (human forearm skin; 750 mM NEp, ethanol, PG): No
Skin Blanch (human forearm skin; 750 mM NEp, ethanol, PG, 20 min): +++++ (+++++ = 90-100% blanch)
Skin Blanch (human skin; 55:20:25 Ethanol:PG:water): +++++ (+++++ = 90-100% blanch)
Skin Blanch (human skin; 60:20:20 Ethanol:PG:water): +++++ (+++++ = 90-100% blanch)

Heat required to completely dissolve vasoconstrictor salt (#secs. at 100° C.) [1, 25]: 0 s
Sample status after 24 hr at 4° C. [1, 25]: clear
Sample status after 24 hr at ~22° C. [1, 25]: clear
SMILES: CNC[C@H](O)c1ccc(O)c(O)c1.Cl (racemic) [Epi (±), (±) epinephrine-HCl]
skin blanch in treated skin field ([3]; by 120 min): single blanched field
coat protection on day 20 ([3]; four applications, 7.5 Gy whole-body γ radiation): confluent area of protected coat
